Structures can show the parent of a compound that is named as a salt.

Type in all cases: biochemical
The target in test [1] is T1, AKT1 (Homo sapiens, UniProt P31749).
T1 construct: purchased SignalChem
Put plainly: AKT Kinase Assay (IMAP fluorescent polarisation) vs AKT1. The following applies: activated AKT1, FAM Crosstide substrate. The essentials: (§1)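 IMAP fluorescence-polarisation read-out (485/528 nm) of 5′FAM-Crosstide phosphorylation; IC50 fitted by non-linear regression from % inhibition against vehicle. Fourteen-point half-log compound dilutions sat 45 min at room temperature with activated isoform at linear-range amount. ATP and substrate followed for 1 h, then a 1 h binding-reagent stop.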

The target in test [2] is T2, AKT2 (Homo sapiens, UniProt P31751).
T2 construct: purchased SignalChem
Put plainly: AKT Kinase Assay (IMAP fluorescent polarisation) vs AKT2. The following applies: activated AKT2, FAM Crosstide substrate. The method in brief: as §1

The target of test [3] is T3, AKT3 (Homo sapiens, UniProt Q9Y243).
T3 construct: purchased SignalChem
Description: AKT Kinase Assay (IMAP fluorescent polarisation) vs AKT3. The following applies: activated AKT3, FAM Crosstide substrate. The essentials: as §1

T3 sequence (Q9Y243 whole entry): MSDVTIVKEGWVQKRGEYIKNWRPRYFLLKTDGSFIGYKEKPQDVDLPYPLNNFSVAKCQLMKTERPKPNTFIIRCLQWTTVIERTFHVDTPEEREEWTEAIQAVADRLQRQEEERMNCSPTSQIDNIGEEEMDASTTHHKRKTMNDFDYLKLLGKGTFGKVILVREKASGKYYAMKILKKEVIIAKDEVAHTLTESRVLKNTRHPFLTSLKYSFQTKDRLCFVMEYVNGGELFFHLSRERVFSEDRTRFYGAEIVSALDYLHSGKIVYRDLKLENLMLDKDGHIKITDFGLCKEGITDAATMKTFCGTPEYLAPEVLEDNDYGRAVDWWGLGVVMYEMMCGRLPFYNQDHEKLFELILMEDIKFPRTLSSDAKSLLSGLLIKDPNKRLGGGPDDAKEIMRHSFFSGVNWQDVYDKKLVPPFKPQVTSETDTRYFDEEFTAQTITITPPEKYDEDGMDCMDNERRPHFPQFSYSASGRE
T2 sequence (P31751 whole entry): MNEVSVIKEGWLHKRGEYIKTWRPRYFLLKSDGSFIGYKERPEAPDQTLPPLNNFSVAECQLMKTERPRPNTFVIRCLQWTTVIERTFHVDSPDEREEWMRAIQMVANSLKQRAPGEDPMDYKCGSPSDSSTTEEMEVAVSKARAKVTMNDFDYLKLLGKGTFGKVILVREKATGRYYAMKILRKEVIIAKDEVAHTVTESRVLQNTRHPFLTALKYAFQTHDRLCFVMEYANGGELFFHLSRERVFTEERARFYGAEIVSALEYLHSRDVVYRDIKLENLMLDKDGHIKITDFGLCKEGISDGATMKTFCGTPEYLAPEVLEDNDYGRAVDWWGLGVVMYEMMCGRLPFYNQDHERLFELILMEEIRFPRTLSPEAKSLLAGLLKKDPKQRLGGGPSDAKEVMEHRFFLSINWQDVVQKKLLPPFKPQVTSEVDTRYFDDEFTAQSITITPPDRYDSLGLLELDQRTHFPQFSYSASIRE
T1 sequence (P31749 whole entry): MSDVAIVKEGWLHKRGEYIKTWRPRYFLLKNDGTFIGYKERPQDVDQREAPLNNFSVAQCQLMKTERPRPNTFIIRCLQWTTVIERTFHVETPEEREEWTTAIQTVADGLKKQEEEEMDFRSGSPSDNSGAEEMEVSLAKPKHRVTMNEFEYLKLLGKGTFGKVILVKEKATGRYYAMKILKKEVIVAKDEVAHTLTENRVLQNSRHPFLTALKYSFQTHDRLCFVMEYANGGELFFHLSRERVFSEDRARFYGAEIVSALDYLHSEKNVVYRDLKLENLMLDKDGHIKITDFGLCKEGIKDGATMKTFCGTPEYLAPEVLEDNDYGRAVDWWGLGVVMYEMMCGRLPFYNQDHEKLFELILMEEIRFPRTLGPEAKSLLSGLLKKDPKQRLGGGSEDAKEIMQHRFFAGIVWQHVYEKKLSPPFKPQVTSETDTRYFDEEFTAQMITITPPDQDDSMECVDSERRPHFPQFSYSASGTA

In the case of `CSc1nc(I)c2c(-c3ccccc3)c(-c3ccc(C4(N)CCC4)cc3)oc2n1` [Example 75, 1-(4-(4-Iodo-2-(methylthio)-5-phenylfuro[2,3-d]pyrimidin-6-yl)phenyl)cyclobutanamine], the IC50 in test [1] is 1 to 10 µM; in test [2], 1 to 10 µM; in test [3], more than 10 µM.
Regarding `NC1(c2ccc(-c3oc4nc(NCCO)[nH]c(=O)c4c3-c3ccccc3)cc2)CCC1` [Example 76, 6-(4-(1-Aminocyclobutyl)phenyl)-2-((2-hydroxyethyl)amino)-5-phenylfuro[2,3-d]pyrimidin-4(3H)-one], the IC50 in test [1] was not above 0.1 µM; in test [2], not above 0.1 µM; in test [3], 1 to 10 µM.
`NC1(c2ccc(-c3oc4nc(NCCO)nc(NCCO)c4c3-c3ccccc3)cc2)CCC1` [Example 77, 2,2′-((6-(4-(1-Aminocyclobutyl)phenyl)-5-phenylfuro[2,3-d]pyrimidine-2,4-diyl)bis(azanediyl))diethanol]: the IC50 in test [1] was 0.1 to 1 µM; in test [2], 0.1 to 1 µM; in test [3], more than 10 µM.
In the case of `COc1ncnc2oc(-c3ccc(C4(N)CCC4)cc3)c(-c3ccccc3)c12` [Example 78, 1-(4-(4-Methoxy-5-phenylfuro[2,3-d]pyrimidin-6-yl)phenyl)cyclobutanamine], the IC50 in test [1] was not above 0.1 µM; in test [2], 0.1 to 1 µM; in test [3], more than 10 µM.
On the same counts, the results for `CNc1nc(NCCO)nc2oc(-c3ccc(C4(N)CCC4)cc3)c(-c3ccccc3)c12` [Example 79, 2-(6-(4-(1-Aminocyclobutyl)phenyl)-4-(methylamino)-5-phenylfuro[2,3-d]pyrimidin-2-ylamino)ethanol, HCl] are 0.1 to 1 µM, 1 to 10 µM and more than 10 µM.
On the same counts, the results for `COc1ncc(Br)c2oc(-c3ccc(C4(N)CCC4)cc3)c(-c3ccccc3)c12` [Example 80, 1-(4-(7-Bromo-4-methoxy-3-phenylfuro[3,2-c]pyridin-2-yl)phenyl)cyclobutanamine] are 0.1 to 1 µM, 1 to 10 µM and more than 10 µM.
On the same counts, the results for `CCNc1nc(NCCO)nc2oc(-c3ccc(C4(N)CCC4)cc3)c(-c3ccccc3)c12` [Example 81, 2-(6-(4-(1-Aminocyclobutyl)phenyl)-4-(ethylamino)-5-phenylfuro[2,3-d]pyrimidin-2-ylamino)ethanol, HCl] are 0.1 to 1 µM, 1 to 10 µM and more than 10 µM.
Turning to `Cn1c(N2CCOCC2)nc2oc(-c3ccc(C4(N)CCC4)cc3)c(-c3ccccc3)c2c1=O` [Example 82, 6-(4-(1-Aminocyclobutyl)phenyl)-3-methyl-2-morpholino-5-phenylfuro[2,3-d]pyrimidin-4(3H)-one], the IC50 is 0.1 to 1 µM in test [1], 1 to 10 µM in test [2] and 1 to 10 µM in test [3].
With `COCCNc1nc2oc(-c3ccc(C4(N)CCC4)cc3)c(-c3ccccc3)c2c(=O)n1C` [Example 83, 6-(4-(1-Aminocyclobutyl)phenyl)-2-(2-methoxyethylamino)-3-methyl-5-phenylfuro[2,3-d]pyrimidin-4(3H)-one], the IC50 lay in the range of 0.1 to 1 µM in test [1], 1 to 10 µM in test [2] and 1 to 10 µM in test [3].
Consider `CN(CCO)c1nc2oc(-c3ccc(C4(N)CCC4)cc3)c(-c3ccccc3)c2c(=O)n1C` [Example 84, 6-(4-(1-Aminocyclobutyl)phenyl)-2-((2-hydroxyethyl)(methyl)amino)-3-methyl-5-phenylfuro[2,3-d]pyrimidin-4(3H)-one], for which the IC50 was 1 to 10 µM in test [1], 0.1 to 1 µM in test [2] and more than 10 µM in test [3].
On the same counts, the results for `Cn1c(OCCO)nc2oc(-c3ccc(C4(N)CCC4)cc3)c(-c3ccccc3)c2c1=O` [Example 85, 6-(4-(1-Aminocyclobutyl)phenyl)-2-(2-hydroxyethoxy)-3-methyl-5-phenylfuro[2,3-d]pyrimidin-4(3H)-one, HCl] are 0.1 to 1 µM, not above 0.1 µM and 1 to 10 µM.
Take `C[C@H](O)CNc1nc2oc(-c3ccc(C4(N)CCC4)cc3)c(-c3ccccc3)c2c(=O)n1C` [Example 86, (S)-6-(4-(1-Aminocyclobutyl)phenyl)-2-((2-hydroxypropyl)amino)-3-methyl-5-phenylfuro[2,3-d]pyrimidin-4(3H)-one]: the results for the IC50 in test [1], in test [2] and in test [3] were 0.1 to 1 µM, 0.1 to 1 µM and 1 to 10 µM, respectively.
On to `Cc1nc2oc(-c3ccc(C4(N)CCC4)cc3)c(-c3ccccc3)c2c(=O)n1C` [Example 87, 6-(4-(1-Aminocyclobutyl)phenyl)-2,3-dimethyl-5-phenylfuro[2,3-d]pyrimidin-4(3H)-one], for which the figures for the IC50 in test [1], in test [2] and in test [3] were 0.1 to 1 µM, 0.1 to 1 µM and 1 to 10 µM, respectively.
With `CCNc1nc2oc(-c3ccc(C4(N)CCC4)cc3)c(-c3ccccc3)c2c(=O)n1C` [Example 88, 6-(4-(1-Aminocyclobutyl)phenyl)-2-(ethylamino)-3-methyl-5-phenylfuro[2,3-d]pyrimidin-4(3H)-one, HCl], the figures for the IC50 in test [1], in test [2] and in test [3] were 0.1 to 1 µM, not above 0.1 µM and 1 to 10 µM, respectively.
For the compound `CNc1nc(OCCF)c2c(-c3ccccc3)c(-c3ccc(C4(N)CCC4)cc3)oc2n1` [Example 89, 6-(4-(1-Aminocyclobutyl)phenyl)-4-(2-fluoroethoxy)-N-methyl-5-phenylfuro[2,3-d]pyrimidin-2-amine, HCl], the concentration for half-maximal inhibition (IC50) in test [1] lay within 0.1 to 1 µM; in test [2], 0.1 to 1 µM; in test [3], 1 to 10 µM.
Consider `Cn1c(C2CC2)nc2oc(-c3ccc(C4(N)CCC4)cc3)c(-c3ccccc3)c2c1=O` [Example 90, 6-(4-(1-Aminocyclobutyl)phenyl)-2-cyclopropyl-3-methyl-5-phenylfuro[2,3-d]pyrimidin-4(3H)-one], for which the IC50 in test [1] is 0.1 to 1 µM; in test [2] it was 0.1 to 1 µM; in test [3] it was more than 10 µM.
`NC1(c2ccc(-c3oc4ccn(CCF)c(=O)c4c3-c3ccccc3)cc2)CCC1` [Example 91, 2-(4-(1-Aminocyclobutyl)phenyl)-5-(2-fluoroethyl)-3-phenylfuro[3,2-c]pyridin-4(5H)-one]: the IC50 is 1 to 10 µM in test [1], 1 to 10 µM in test [2] and more than 10 µM in test [3].
`CCn1c(NC)nc2oc(-c3ccc(C4(N)CCC4)cc3)c(-c3ccccc3)c2c1=O` [Example 92, 6-(4-(1-Aminocyclobutyl)phenyl)-3-ethyl-2-(methylamino)-5-phenylfuro[2,3-d]pyrimidin-4(3H)-one]: the IC50 was 0.1 to 1 µM in test [1], not above 0.1 µM in test [2] and 1 to 10 µM in test [3].
For `CCn1c(NCCO)nc2oc(-c3ccc(C4(N)CCC4)cc3)c(-c3ccccc3)c2c1=O` [Example 93, 6-(4-(1-Aminocyclobutyl)phenyl)-3-ethyl-2-((2-hydroxyethyl)amino)-5-phenylfuro[2,3-d]pyrimidin-4(3H)-one] the same measures were 1 to 10 µM, not above 0.1 µM and 1 to 10 µM.
For the compound `CNc1nc2oc(-c3ccc(C4(N)CCC4)cc3)c(-c3ccccc3)c2c(=O)n1CC1CC1` [Example 94], the IC50 in test [1] is 1 to 10 µM; in test [2], not above 0.1 µM; in test [3], 1 to 10 µM.
For the compound `NC1(c2ccc(-c3oc4nc(NCCO)n(CC5CC5)c(=O)c4c3-c3ccccc3)cc2)CCC1` [Example 95, 6-(4-(1-Aminocyclobutyl)phenyl)-3-(cyclopropylmethyl)-2-((2-hydroxyethyl)amino)-5-phenylfuro[2,3-d]pyrimidin-4(3H)-one], the 50% inhibitory concentration (IC50) in test [1] was 1 to 10 µM; in test [2], not above 0.1 µM; in test [3], 1 to 10 µM.
In the case of `CSc1nc2oc(-c3ccc(C4(N)CCC4)cc3)c(-c3ccccc3)c2c(=O)n1CC#N` [Example 96, 2-(6-(4-(1-Aminocyclobutyl)phenyl)-2-(methylthio)-4-oxo-5-phenylfuro[2,3-d]pyrimidin-3(4H)-yl)acetonitrile], the IC50 in test [1] was not above 0.1 µM; in test [2], not above 0.1 µM; in test [3], 1 to 10 µM.
Turning to `CSc1nc2oc(-c3ccc(C4(N)CCC4)cc3)c(-c3ccccc3)c2c(=O)n1CC(N)=O` [Example 97, 2-(6-(4-(1-Aminocyclobutyl)phenyl)-2-(methylthio)-4-oxo-5-phenylfuro[2,3-d]pyrimidin-3(4H)-yl)acetamide], the IC50 in test [1] was 0.1 to 1 µM; in test [2], 0.1 to 1 µM; in test [3], more than 10 µM.
On to `C[C@@H](CO)Nc1nc2oc(-c3ccc(C4(N)CCC4)cc3)c(-c3ccccc3)c2c(=O)n1C` [Example 98, (S)-6-(4-(1-Aminocyclobutyl)phenyl)-2-(1-hydroxypropan-2-ylamino)-3-methyl-5-phenylfuro[2,3-d]pyrimidin-4(3H)-one], for which the figures for the IC50 in test [1], in test [2] and in test [3] were 0.1 to 1 µM, 0.1 to 1 µM and more than 10 µM, respectively.
`Cn1c(N2CCNC(=O)C2)nc2oc(-c3ccc(C4(N)CCC4)cc3)c(-c3ccccc3)c2c1=O` [Example 99, 6-(4-(1-Aminocyclobutyl)phenyl)-3-methyl-2-(3-oxopiperazin-1-yl)-5-phenylfuro[2,3-d]pyrimidin-4(3H)-one]: the IC50 in test [1] was 1 to 10 µM; in test [2], not above 0.1 µM; in test [3], 1 to 10 µM.
Regarding `NC1(c2ccc(-c3oc4ncn(CC5CC5)c(=O)c4c3-c3ccccc3)cc2)CCC1` [Example 100], the IC50 was 1 to 10 µM in test [1], not above 0.1 µM in test [2] and 1 to 10 µM in test [3].
In the case of `N#CCn1cnc2oc(-c3ccc(C4(N)CCC4)cc3)c(-c3ccccc3)c2c1=O` [Example 101, 2-(6-(4-(1-Aminocyclobutyl)phenyl)-4-oxo-5-phenylfuro[2,3-d]pyrimidin-3(4H)-yl)acetonitrile], the values for the IC50 in test [1], in test [2] and in test [3] were 0.1 to 1 µM, 0.1 to 1 µM and 1 to 10 µM, respectively.

For orientation: IC50 means the concentration at which inhibition is half-maximal.
